# Measurements published in patent US8492543B2, “Method for producing quinazoline derivative” (Eisai R&D Management Co., Ltd., priority 2007, dated 2013).
# Where two headings read alike, the source gives them in different places.
# Tests used:
# CYP1A2 [1] = details: human, hepatocytes
# Procedure: (§1) Cryopreserved human hepatocytes (XenoTeck) were rapidly thawed at 37° C., and viable cells were obtained using Hepatocytes Isolation Kit (Nosan Corporation). After cells prepared were diluted with ice cold William's Medium E (10% FBS, +PSG) to give a concentration of 5×10^5 viable cells/mL, the cells were seeded onto a 48-well collagen-coated plate (BD Biosciences) at a concentration of 1×10^5 cells/cm^2 and cultured at 37° C. in 5% CO2 for 24 hours. Then, the medium was replaced with Hepato-STIM (registered trade mark: BD Biosciences) (+EGF, PSG, −FBS), and the cells were further cultured at 37° C. in 5% CO2 for 24 hours. […] The culture medium containing test compound, β-NF or Rif was replaced every 24 hours. Test compound, β-NF and Rif were each dissolved in dimethyl sulfoxide (DMSO: Wako Pure Chemical Industries, Ltd.), and culture medium containing test compound (final concentrations; 1, 3 and 10 μM), β-NF (final concentration; 10 μM) or Rif (final concentration; 10 μM) was prepared by adding them to Hepato-STIM(+EGF, PSG, −FBS), respectively. Final concentration of DMSO was set to be 0.1%, and culture medium containing 0.1% DMSO was used for control. After completion of the treatment, the cells were washed with PBS once, and total RNA was purified using Total RNA Purification Kit (Applied Biosystems). The purified total RNA was subjected to reverse transcription reaction using TaqMan Reverse Transcription Reagents (Applied Biosystems) to synthesize cDNA, where oligo dT was used as a primer. The reaction was carried out using Gene Amp PCR system 9700 at 25° C. for 10 minutes, followed by at 48° C. for 60 minutes. Then, reverse transcriptase was deactivated at 95° C. for 10 minutes. The levels of mRNA for CYP1A1 and GAPDH were quantified using SYBR Green PCR Core Reagents Kit (Applied Biosystems), and those for CYP1A2 and that of CYP3A4 were measured using Taqman PCR Core Reagents Kit (Applied Biosystems) and ABI Prism 7900 Sequence Detection System (Applied Biosystems).
# (§2) The ability of a test compound to induce CYP1A1 was calculated as follows: Ability of a test compound to induce CYP1A1(%)={[(amount of mRNA of CYP1A1 in test compound treated cells)/(amount of mRNA of GAPDH in test compound treated cells)]/[(amount of mRNA of CYP1A1 in control cells)/(amount of mRNA of GAPDH in control cells)]−1}/{[(amount of mRNA of CYP1A1 in positive control treated cells)/(amount of mRNA of GAPDH in positive control treated cells)]/[(amount of mRNA of CYP1A1 in control cells)/(amount of mRNA of GAPDH in control cells)]−1}×100
# (§3) The ability to induce CYP1A2 or CYP3A4 was calculated in the same manner described above.
# CYP3A4 = assay: Induction potency of drug metabolizing enzyme (CYP) using cryopreserved human hepatocytes: CYP3A4 mRNA; details: approx. 48 hours, mRNA relative to Rif 10 μM
# Procedure: Cryopreserved human hepatocytes (XenoTeck) were rapidly thawed at 37° C., and viable cells were obtained using Hepatocytes Isolation Kit (Nosan Corporation). After cells prepared were diluted with ice cold William's Medium E (10% FBS, +PSG) to give a concentration of 5×10^5 viable cells/mL, the cells were seeded onto a 48-well collagen-coated plate (BD Biosciences) at a concentration of 1×10^5 cells/cm^2 and cultured at 37° C. in 5% CO2 for 24 hours. Then, the medium was replaced with Hepato-STIM (registered trade mark: BD Biosciences) (+EGF, PSG, −FBS), and the cells were further cultured at 37° C. in 5% CO2 for 24 hours. […] The culture medium containing test compound, β-NF or Rif was replaced every 24 hours. Test compound, β-NF and Rif were each dissolved in dimethyl sulfoxide (DMSO: Wako Pure Chemical Industries, Ltd.), and culture medium containing test compound (final concentrations; 1, 3 and 10 μM), β-NF (final concentration; 10 μM) or Rif (final concentration; 10 μM) was prepared by adding them to Hepato-STIM(+EGF, PSG, −FBS), respectively. […] The levels of mRNA for CYP1A1 and GAPDH were quantified using SYBR Green PCR Core Reagents Kit (Applied Biosystems), and those for CYP1A2 and that of CYP3A4 were measured using Taqman PCR Core Reagents Kit (Applied Biosystems) and ABI Prism 7900 Sequence Detection System (Applied Biosystems).
# as §2, §3
# CYP1A1 = details: human, hepatocytes
# Procedure: Cryopreserved human hepatocytes (XenoTeck) were rapidly thawed at 37° C., and viable cells were obtained using Hepatocytes Isolation Kit (Nosan Corporation). After cells prepared were diluted with ice cold William's Medium E (10% FBS, +PSG) to give a concentration of 5×10^5 viable cells/mL, the cells were seeded onto a 48-well collagen-coated plate (BD Biosciences) at a concentration of 1×10^5 cells/cm^2 and cultured at 37° C. in 5% CO2 for 24 hours. Then, the medium was replaced with Hepato-STIM (registered trade mark: BD Biosciences) (+EGF, PSG, −FBS), and the cells were further cultured at 37° C. in 5% CO2 for 24 hours. […] The culture medium containing test compound, β-NF or Rif was replaced every 24 hours. Test compound, β-NF and Rif were each dissolved in dimethyl sulfoxide (DMSO: Wako Pure Chemical Industries, Ltd.), and culture medium containing test compound (final concentrations; 1, 3 and 10 μM), β-NF (final concentration; 10 μM) or Rif (final concentration; 10 μM) was prepared by adding them to Hepato-STIM(+EGF, PSG, −FBS), respectively. Final concentration of DMSO was set to be 0.1%, and culture medium containing 0.1% DMSO was used for control. […] The levels of mRNA for CYP1A1 and GAPDH were quantified using SYBR Green PCR Core Reagents Kit (Applied Biosystems), and those for CYP1A2 and that of CYP3A4 were measured using Taqman PCR Core Reagents Kit (Applied Biosystems) and ABI Prism 7900 Sequence Detection System (Applied Biosystems).
# as §2
# CYPs = assay: Induction potency on CYPs, overall statement (cryopreserved human hepatocytes); details: CYP1A1, CYP1A2, CYP3A4; 1, 3 and 10 μM
# Procedure: Cryopreserved human hepatocytes (XenoTeck) were rapidly thawed at 37° C., and viable cells were obtained using Hepatocytes Isolation Kit (Nosan Corporation). After cells prepared were diluted with ice cold William's Medium E (10% FBS, +PSG) to give a concentration of 5×10^5 viable cells/mL, the cells were seeded onto a 48-well collagen-coated plate (BD Biosciences) at a concentration of 1×10^5 cells/cm^2 and cultured at 37° C. in 5% CO2 for 24 hours. Then, the medium was replaced with Hepato-STIM (registered trade mark: BD Biosciences) (+EGF, PSG, −FBS), and the cells were further cultured at 37° C. in 5% CO2 for 24 hours. […] The culture medium containing test compound, β-NF or Rif was replaced every 24 hours. […] The levels of mRNA for CYP1A1 and GAPDH were quantified using SYBR Green PCR Core Reagents Kit (Applied Biosystems), and those for CYP1A2 and that of CYP3A4 were measured using Taqman PCR Core Reagents Kit (Applied Biosystems) and ABI Prism 7900 Sequence Detection System (Applied Biosystems). […]
# as §3
# CYP1A2 [2] = assay: Induction potency of drug metabolizing enzyme (CYP) using cryopreserved human hepatocytes: CYP1A2 mRNA; details: 10 μM, approx. 48 hours, mRNA relative to β-NF 10 μM
# Procedure: as §1, §2, §3
structure (smiles),measurement,setting,value
"COc1cc2nc(Cl)nc(-c3cccc(NC(=O)OC(C)(C)C)c3)c2cc1OC [Example 1, t-butyl [3-(2-chloro-6,7-dimethoxyquinazolin-4-yl)phenyl]carbamate]",Induction Ability compared to positive control (%) CYP1A2,CYP1A2 [1]; 1 μM,−0.1%
same,Induction Ability compared to positive control (%) CYP1A2,CYP1A2 [1]; 3 μM,−0.7%
same,Induction Ability compared to positive control (%) CYP1A2,CYP1A2 [1]; 10 μM,2.5%
same,Induction Ability compared to positive control (%) CYP3A4,CYP3A4; 1 μM,−2.4%
same,Induction Ability compared to positive control (%) CYP3A4,CYP3A4; 3 μM,−3.4%
same,Induction Ability compared to positive control (%) CYP3A4,CYP3A4; 10 μM,−4.0%
same,Induction Ability compared to positive control (%) CYP1A1,CYP1A1; 1 μM,0.1%
same,Induction Ability compared to positive control (%) CYP1A1,CYP1A1; 3 μM,0.6%
same,Induction Ability compared to positive control (%) CYP1A1,CYP1A1; 10 μM,4.6%
"CNc1nc(-c2cccc(NC(=O)c3ccc(C(=O)OC)cc3)c2)c2cc(OC)c(OC)cc2n1 [Example 10, methyl N-[3-(6,7-dimethoxy-2-methylaminoquinazolin-4-yl)phenyl]terephthalamic acid]",induction potency on CYPs compared with the comparative example,CYPs,lower induction potency on CYPs than the compound of the comparative example
"O=c1cc(-c2ccccc2)oc2ccc3ccccc3c12 [β-naphthof lavone, β-naphthoflavone]",Induction Ability compared to positive control (%) CYP1A2,CYP1A2 [2],100.0%
